In ChEMBL document CHEMBL1201862, “PubChem BioAssay data set” (2004):
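Each compound was tested at five concentrations against cells in 96-well plates for 48 hours. Here, GI50 denotes the concentration required for 50% inhibition of growth.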 Active and inactive are the calls of the source. No stated cut-off is given here; in the data, active = GI50 up to about 1.1 µM and inactive = higher.

Columns and labels:
Experiment in all cases: NCI tumour cell line growth inhibition, 48 h
[1] = tested on: LOX IMVI
[2] = tested on: EKVX
[3] = tested on: HT-29
[4] = tested on: COLO 205
[5] = tested on: BT-549
[6] = tested on: MCF7
[7] = tested on: SF-539
[8] = tested on: MDA-MB-231
[9] = tested on: SNB-75
[10] = tested on: SNB-19
[11] = tested on: CAKI-1
[12] = tested on: SW-620
[13] = tested on: SF-295
[14] = tested on: A549
[15] = tested on: UACC-62
[16] = tested on: A498
[17] = tested on: OVCAR-4
[18] = tested on: MOLT-4
[19] = tested on: CCRF-CEM
[20] = tested on: HOP-92

Measured: GI50

COCO[C@@H]1C[C@H]2C(=O)Nc3ccccc3C(=O)N2C1
inactive: [1] 29.2 µM | [2] > 100 µM | [3] 85.3 µM | [4] 29.3 µM | [5] 35.3 µM | [6] 54.1 µM | [7] 38.7 µM | [8] > 100 µM | [9] 45.3 µM | [10] 77.4 µM | [11] 36 µM | [12] 50.7 µM | [13] 30.8 µM | [14] > 100 µM | [15] > 100 µM | [16] 38.5 µM | [17] > 100 µM

O=C(NNC(=O)c1ccccc1O)c1cccs1
inactive: [1] 66.4 µM | [18] 54.7 µM | [2] 34.4 µM | [3] 33.3 µM | [4] 46.5 µM | [5] > 100 µM | [6] 52.2 µM | [7] > 100 µM | [8] 78.2 µM | [9] 28.3 µM | [10] > 100 µM | [11] 79.4 µM | [12] 61.5 µM | [13] 34.2 µM | [14] 54.1 µM | [15] 49.8 µM | [19] > 100 µM | [16] > 100 µM | [17] > 100 µM

O=C(NNC(=O)c1csc(NC(=S)NC2CCCCC2)n1)c1ccccc1
inactive: [1] 10.3 µM | [18] 4.2 µM | [2] 1.84 µM | [3] 7.23 µM | [4] 5.25 µM | [5] 17.3 µM | [6] 2.06 µM | [7] 15 µM | [8] 13.5 µM | [9] 83.9 µM | [11] 18.6 µM | [12] 10.3 µM | [13] 11 µM | [14] 15.1 µM | [15] 10.2 µM | [19] 3.61 µM | [16] 38 µM | [17] 3.34 µM

COc1ccc(C2SC(=N)Nc3c2c(C)nn3C(=O)c2ccc(Cl)cc2)cc1OC (stereo not drawn)
inactive: [1] > 10 µM | [18] > 10 µM | [2] > 10 µM | [3] > 10 µM | [4] > 10 µM | [5] > 10 µM | [6] > 10 µM | [7] > 10 µM | [8] > 10 µM | [9] > 10 µM | [20] > 10 µM | [10] > 10 µM | [11] > 10 µM | [12] > 10 µM | [13] > 10 µM | [14] > 10 µM | [15] > 10 µM | [19] > 10 µM | [17] > 10 µM

O=[N+]([O-])c1ccc(C2=NOC(c3ccccc3)N2C23CC4CC(CC(C4)C2)C3)cc1 (stereo not drawn)
inactive: [1] 15.9 µM | [18] 17.5 µM | [2] 48.1 µM | [3] 21.3 µM | [4] 30 µM | [5] 19.8 µM | [6] 24.8 µM | [7] 54 µM | [8] 31.4 µM | [9] 21.9 µM | [10] > 10 µM | [11] 1.36 µM | [12] 35.3 µM | [13] 26.8 µM | [14] 32.9 µM | [15] 20.8 µM | [19] 21.7 µM | [16] > 100 µM | [17] 39.1 µM

O=c1cc(CSc2c(-c3ccccc3)c(=O)n(-c3ccccc3)c(=S)n2-c2ccccc2)[nH]c(=O)[nH]1
inactive: [18] > 100 µM | [2] > 100 µM | [3] > 100 µM | [4] > 100 µM | [5] > 100 µM | [6] > 100 µM | [7] > 100 µM | [8] > 100 µM | [9] > 100 µM | [10] > 100 µM | [11] > 100 µM | [12] > 100 µM | [14] > 100 µM | [15] > 100 µM | [19] > 100 µM | [16] > 100 µM
